Experimental data as given in patent US8513268B2, “1H-quinazoline-2,4-diones processes for their production, pharmaceutical compositions, and treatment for epilepsy” (Novartis AG, priority 2005, dated 2013).
Where a name gives a salt, the structure may show the parent alone.

Columns and labels:
AMPA-Receptor = experiment: [3H] CNQX binding test (AMPA-receptor binding); settings: brain membranes, 5 nM [3H]-CNQX, 4° C., 40 min
Protocol: CNQX binding test (Honoré et al. Biochem. Pharmacol. 1989, 38: 3207-3212). This test is performed as follows: • Brain membranes: The animals are decapitated, the brain removed and homogenized in 10 volumes of ice-cold 10% sucrose with a glass/Teflon homogenizer at positions 5 for 30 sec. The membranes are centrifuged at 1000×g for 10 min, and the supernatant centrifuged at 20,000×g for 15 min. The resulting pellet is resuspended in 10 volumes of cold water with a tissue homogenizer (Brinkman Polytron) at position 5 for 15 sec and the suspension centrifuged at 8000×g for 10 min. The supernatant including the buffy layer is centrifuged at 40,000×g for 20 min, the pellet resuspended in 5 volumes of water and the suspension frozen (20-30 min in dry ice/MeOH) and thawed (water-bath at 37° C.) twice. The suspension is centrifuged at 40,000×g for 20 min, the pellet resuspended in 50 mM HEPES/KOH, pH 7.5, and centrifuged at 40,000×g for 10 min. […]
Two hundred μL of the scintillation fluid Microscint 20 (Packard) are added and the radioactivity is counted in a Packard Topcount scintillation counter at an efficiency of 40-45%. […]

rGluR3 AMPA receptor = molecular target: T1, rGluR3 AMPA receptor (Rattus norvegicus, UniProt P19492); experiment: Functional test for AMPA-receptor activity, two electrode voltage clamp in Xenopus laevis oocytes; type: cell-based; settings: oocytes expressing rat GluR3-(flop) AMPA receptor; read-out: IC50-value (antagonist)
T1 construct: expressed in transfected cells; host or cells: Xenopus laevis oocytes injected with cRNA
T1 sequence (P19492 23-888): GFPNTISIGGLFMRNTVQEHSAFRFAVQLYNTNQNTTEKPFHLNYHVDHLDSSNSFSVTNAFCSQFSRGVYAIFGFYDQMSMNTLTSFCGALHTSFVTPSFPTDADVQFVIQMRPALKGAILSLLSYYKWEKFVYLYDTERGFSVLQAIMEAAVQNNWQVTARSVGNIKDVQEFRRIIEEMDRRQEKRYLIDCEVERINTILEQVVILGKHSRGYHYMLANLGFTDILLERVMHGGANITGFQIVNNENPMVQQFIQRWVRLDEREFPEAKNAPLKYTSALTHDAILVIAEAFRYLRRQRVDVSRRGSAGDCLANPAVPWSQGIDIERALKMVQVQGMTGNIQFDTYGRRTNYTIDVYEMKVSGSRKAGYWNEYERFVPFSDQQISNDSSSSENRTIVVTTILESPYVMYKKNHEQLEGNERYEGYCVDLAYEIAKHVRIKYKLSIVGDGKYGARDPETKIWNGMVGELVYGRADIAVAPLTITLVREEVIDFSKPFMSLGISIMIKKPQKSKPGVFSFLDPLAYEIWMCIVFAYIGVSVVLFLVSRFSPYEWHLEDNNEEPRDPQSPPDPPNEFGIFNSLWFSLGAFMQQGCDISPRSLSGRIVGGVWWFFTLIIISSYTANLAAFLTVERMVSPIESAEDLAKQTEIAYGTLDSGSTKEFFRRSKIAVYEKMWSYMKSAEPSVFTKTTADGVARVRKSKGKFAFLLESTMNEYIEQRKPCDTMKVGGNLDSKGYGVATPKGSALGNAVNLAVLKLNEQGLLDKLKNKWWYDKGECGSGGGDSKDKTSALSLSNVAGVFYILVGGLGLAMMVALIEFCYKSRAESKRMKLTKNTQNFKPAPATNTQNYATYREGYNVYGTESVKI
Protocol: For the determination of functional agonism or antagonism at the AMPA-receptor, experiments can be performed on Xenopus oocytes as previously described in detail (Urwyler et al., Mol. Pharmacol. 2001, 60, 963-971). Briefly, two electrode voltage clamp recordings are performed from Xenopus laevis oocytes expressing GluR3 AMPA receptors. Plasmids for the rat GluR3-(flop) (Hollmann et al., Science 1991, 252, 851-853) are linearized and transcribed into capped cRNA using an in vitro RNA synthesis kit (Ambion, Texas) with T7 Polymerase. Stock solutions are kept in 70% EtOH. Before use, cRNA is precipitated and resuspended in DEPC-treated water. Oocytes are injected with RNA coding the rat GluR3-(flop) AMPA receptor. For recordings, oocytes are placed in a perfusion chamber with continuous gravity flow of frog Ringer's solution. For recordings from oocytes expressing rGluR3-(flop) receptors frog, Ringer's solution containing Mg^2+ (81 mM NaCl; 2.5 mM KCl; 1 mM CaCl2; 1 mM MgCl2, 2.5 mM NaHCO3, 5 mM HEPES, pH 7.4) is used.
Test compounds are washed in with gravity.

SMILES	melting point	IC50 (AMPA-Receptor)	IC50 (rGluR3 AMPA receptor)
CCCOC(C)c1cc2c(=O)n(NS(C)(=O)=O)c(=O)[nH]c2cc1C(F)(F)F (stereo not drawn) [Example 14, N-[2,4-Dioxo-6-(1-propoxy-ethyl)-7-trifluoromethyl-1,4-dihydro-2H-quinazolin-3-yl]-methanesulfonamide]	95 to 105 °C	–	–
CCCC(=O)c1cc2c(=O)n(NS(C)(=O)=O)c(=O)[nH]c2cc1C(F)(F)F [Example 10, N-(6-Butyryl-2,4-dioxo-7-trifluoromethyl-1,4-dihydro-2H-quinazolin-3-yl)-methanesulfonamide]	236 to 239 °C	–	–
CC(C)OC(C)c1cc2c(=O)n(NS(C)(=O)=O)c(=O)[nH]c2cc1C(F)(F)F (stereo not drawn) [Example 5, N-[6-(1-Isopropoxy-ethyl)-2,4-dioxo-7-trifluoromethyl-1,4-dihydro-2H-quinazolin-3-yl]-methanesulfonamide]	110 to 115 °C	–	–
CCCC(O)c1cc2c(=O)n(NS(C)(=O)=O)c(=O)[nH]c2cc1C(F)(F)F (stereo not drawn) [Example 11, N-[6-(1-Hydroxy-butyl)-2,4-dioxo-7-trifluoromethyl-1,4-dihydro-2H-quinazolin-3-yl]-methanesulfonamide]	223 to 226 °C	–	–
CS(=O)(=O)Nn1c(=O)[nH]c2cc(C(F)(F)F)c(-c3ccc(C#N)cc3)cc2c1=O [Example 35, N-[6-(4-Cyano-phenyl)-2,4-dioxo-7-trifluoromethyl-1,4-dihydro-2H-quinazolin-3-yl]-methanesulfonamide]	145 to 147 °C	–	–
CC(C)C(O)c1cc2c(=O)n(NS(C)(=O)=O)c(=O)[nH]c2cc1C(F)(F)F (stereo not drawn) [Example 22, N-[6-(1-Hydroxy-2-methyl-propyl)-2,4-dioxo-7-trifluoromethyl-1,4-dihydro-2H-quinazolin-3-yl]methanesulfonamide]	232 to 235 °C	–	–
CS(=O)(=O)Nn1c(=O)[nH]c2cc(C(F)(F)F)c(CCCO)cc2c1=O [Example 25, N-[6-(3-Hydroxy-propyl)-2,4-dioxo-7-trifluoromethyl-1,4-dihydro-2H-quinazolin-3-yl]-methanesulfonamide]	243 to 247 °C	–	–
COC(c1cc2c(=O)n(NS(C)(=O)=O)c(=O)[nH]c2cc1C(F)(F)F)C(C)C (stereo not drawn) [Example 23, N-[6-(1-Methoxy-2-methyl-propyl)-2,4-dioxo-7-trifluoromethyl-1,4-dihydro-2H-quinazolin-3-yl]-methanesulfonamide]	227 to 229 °C	–	–
CS(=O)(=O)Nn1c(=O)[nH]c2cc(C(F)(F)F)c(C(=O)C(F)(F)F)cc2c1=O [Example 20, N-[2,4-Dioxo-6-(2,2,2,-trifluoro-acetyl)-7-trifluoromethyl-1,4-dihydro-2H-quinazolin-3-yl]-methanesulfonamide]	262 to 265 °C	–	–
CCCCOC(C)c1cc2c(=O)n(NS(C)(=O)=O)c(=O)[nH]c2cc1C(F)(F)F (stereo not drawn) [Example 15, N-[6-(1-Butoxy-ethyl)-2,4-dioxo-7-trifluoromethyl-1,4-dihydro-2H-quinazolin-3-yl]-methanesulfonamide]	84 to 90 °C	–	–
CCOC(C)c1cc2c(=O)n(NS(C)(=O)=O)c(=O)[nH]c2cc1C(F)(F)F (stereo not drawn) [Example 4, N-[6-(1-Ethoxy-ethyl)-2,4-dioxo-7-trifluoromethyl-1,4-dihydro-2H-quinazolin-3-yl]-methanesulfonamide]	105 to 112 °C	< 1 µM	< 3 µM
CC(=O)c1cccc(-c2cc3c(=O)n(NS(C)(=O)=O)c(=O)[nH]c3cc2C(F)(F)F)c1 [Example 36, N-[6-(3-Acetyl-phenyl)-2,4-dioxo-7-trifluoromethyl-1,4-dihydro-2H-quinazolin-3-yl]-methanesulfonamide]	220 to 222 °C	–	–
CS(=O)(=O)Nn1c(=O)[nH]c2cc(C(F)(F)F)c(-c3cccc(C#N)c3)cc2c1=O [Example 34, N-[6-(3-Cyano-phenyl)-2,4-dioxo-7-trifluoromethyl-1,4-dihydro-2H-quinazolin-3-yl]-methanesulfonamide]	291 to 292 °C	–	–
CN(C)Cc1cccc(-c2cc3c(=O)n(NS(C)(=O)=O)c(=O)[nH]c3cc2C(F)(F)F)c1 [Example 39, N-[6-(3-Dimethylaminomethyl-phenyl)-2,4-dioxo-7-trifluoromethyl-1,4-dihydro-2H-quinazolin-3-yl]-methanesulfonamide]	346 to 348 °C	–	–
CC(O)c1cccc(-c2cc3c(=O)n(NS(C)(=O)=O)c(=O)[nH]c3cc2C(F)(F)F)c1 (stereo not drawn) [Example 37, N-{6-[3-(1-Hydroxy-ethyl)-phenyl]-2,4-dioxo-7-trifluoromethyl-1,4-dihydro-2H-quinazolin-3-yl}-methanesulfonamide]	165 to 169 °C	–	–
CS(=O)(=O)Nn1c(=O)[nH]c2cc(C(F)(F)F)c(-c3cccc(CN)c3)cc2c1=O (as salt: hydrochloride) [Example 38, N-[6-(3-Aminomethyl-phenyl)-2,4-dioxo-7-trifluoromethyl-1,4-dihydro-2H-quinazolin-3-yl]methanesulfonamide]	282 to 284 °C	–	–

Continued, values first:

melting point	IC50 (AMPA-Receptor)	IC50 (rGluR3 AMPA receptor)	SMILES
258 to 265 °C	–	–	CC(=O)c1cc2c(=O)n(NS(C)(=O)=O)c(=O)[nH]c2cc1C(F)(F)F [Example 1, N-(6-Acetyl-2,4-dioxo-7-trifluoromethyl-1,4-dihydro-2H-quinazolin-3-yl)-methanesulfonamide]
233 to 236 °C	–	–	COC(C)c1cc2c(=O)n(NS(C)(=O)=O)c(=O)[nH]c2cc1C(F)(F)F (stereo not drawn) [Example 3, N-[6-(1-Methoxy-ethyl)-2,4-dioxo-7-trifluoromethyl-1,4-dihydro-2H-quinazolin-3-yl]-methanesulfonamide]
254 to 257 °C	–	–	CS(=O)(=O)Nn1c(=O)[nH]c2cc(C(F)(F)F)c(C3CCCO3)cc2c1=O (stereo not drawn) [Example 12, N-[2,4-Dioxo-6-(tetrahydro-furan-2-yl)-7-trifluoromethyl-1,4-dihydro-2H-quinazolin-3-yl]-methanesulfonamide]
275 to 280 °C	–	–	CS(=O)(=O)Nn1c(=O)[nH]c2cc(C(F)(F)F)c(C3CCCCO3)cc2c1=O (stereo not drawn) [Example 24, N-[2,4-Dioxo-6-(tetrahydro-pyran-2-yl)-7-trifluoromethyl-1,4-dihydro-2H-quinazolin-3-yl]-methanesulfonamide]
234 to 236 °C	–	–	CCC(=O)c1cc2c(=O)n(NS(C)(=O)=O)c(=O)[nH]c2cc1C(F)(F)F [Example 6, N-(2,4-Dioxo-6-propionyl-7-trifluoromethyl-1,4-dihydro-2H-quinazolin-3-yl)-methanesulfonamide]
263 to 268 °C	–	–	CC(O)c1cc2c(=O)n(NS(C)(=O)=O)c(=O)[nH]c2cc1C(F)(F)F (racemic) [Example 2, N-[6-(1-Hydroxy-ethyl)-2,4-dioxo-7-trifluoromethyl-1,4-dihydro-2H-quinazolin-3-yl]-methanesulfonamide]
228 to 231 °C	–	–	CC(C)C(=O)c1cc2c(=O)n(NS(C)(=O)=O)c(=O)[nH]c2cc1C(F)(F)F [Example 21, N-(6-Isobutyryl-2,4-dioxo-7-trifluoromethyl-1,4-dihydro-2H-quinazolin-3-yl)-methanesulfonamide]
219 to 222 °C	–	–	CCC(O)c1cc2c(=O)n(NS(C)(=O)=O)c(=O)[nH]c2cc1C(F)(F)F (stereo not drawn) [Example 7, N-[6-(1-Hydroxy-propyl)-2,4-dioxo-7-trifluoromethyl-1,4-dihydro-2H-quinazolin-3-yl]-methanesulfonamide]
188 to 192 °C	–	–	CC(OC1CCCC1)c1cc2c(=O)n(NS(C)(=O)=O)c(=O)[nH]c2cc1C(F)(F)F (stereo not drawn) [Example 17, N-[6-(1-Cyclopentyloxy-ethyl)-2,4-dioxo-7-trifluoromethyl-1,4-dihydro-2H-quinazolin-3-yl]-methanesulfonamide]
